According to ChEMBL document CHEMBL3872201, “Synthesis and antiproliferative activity of a natural like glycoconjugate polycyclic compound” (2016):

How the values were obtained:
[1] = Antiproliferative activity against human SF539 cells after 48 hrs by sulforhodamine B assay; format: functional; conditions: SF-539, 48 h
[2] = tested on: MDA-MB-231; experiment: Effect on cell cycle regulatory protein in human MDA-MB-231 cells assessed as cyclin B1 level at 10 uM after 24 hrs by Western blot analysis relative to control; format: functional
[3] = Antiproliferative activity against human U251 cells after 48 hrs by sulforhodamine B assay; format: functional; conditions: U-251, 48 h
[4] = tested on: MDA-MB-231; experiment: Cytotoxicity against human MDA-MB-231 cells assessed as inhibition of cell viability after 48 hrs by MTT assay relative to control; format: functional, cell-based
[5] = Antiproliferative activity against human SW620 cells after 48 hrs by sulforhodamine B assay; format: functional; conditions: SW-620, 48 h
[6] = Antiproliferative activity against human SF268 cells after 48 hrs by sulforhodamine B assay; format: functional; conditions: SF-268, 48 h
[7] = Antiproliferative activity against human CCRF-CEM cells after 48 hrs by sulforhodamine B assay; format: functional
[8] = Antiproliferative activity against human ACHN cells after 48 hrs by sulforhodamine B assay; format: functional
[9] = Cell cycle arrest in human MDA-MB-231 cells assessed as accumulation at G2/M phase at 5 uM after 48 hrs by propidium iodide staining based flow cytometric analysis (reference value: 19.5%); format: functional
[10] = Antiproliferative activity against human HCC2998 cells after 48 hrs by sulforhodamine B assay; format: functional; conditions: HCC 2998, 48 h
[11] = Cell cycle arrest in human MDA-MB-231 cells assessed as accumulation at subG0/G1 phase at 10 uM after 24 hrs by propidium iodide staining based flow cytometric analysis (reference value: 7.6%); format: functional
[12] = Cell cycle arrest in human MDA-MB-231 cells assessed as accumulation at G0/G1 phase at 10 uM after 24 hrs by propidium iodide staining based flow cytometric analysis (reference value: 66.5%); format: functional
[13] = tested on: MDA-MB-231; experiment: Effect on cell cycle regulatory protein in human MDA-MB-231 cells assessed as cyclin B1 level at 10 uM after 48 hrs by Western blot analysis relative to control; format: functional
[14] = Antiproliferative activity against human HOP62 cells after 48 hrs by sulforhodamine B assay; format: functional; conditions: HOP-62, 48 h
[15] = tested on: MDA-MB-231; experiment: Effect on cell cycle regulatory protein in human MDA-MB-231 cells assessed as cyclin B1 level at 5 uM after 48 hrs by Western blot analysis relative to control; format: functional
[16] = Antiproliferative activity against human HL-60(TB) cells after 48 hrs by sulforhodamine B assay; format: functional; conditions: HL-60, 48 h
[17] = Antiproliferative activity against human MDA-MB-468 cells after 48 hrs by sulforhodamine B assay; format: functional; conditions: MDA-MB-468, 48 h
[18] = Antiproliferative activity against human TK10 cells after 48 hrs by sulforhodamine B assay; format: functional; conditions: TK-10, 48 h
[19] = Antiproliferative activity against human NCI-H322M cells after 48 hrs by sulforhodamine B assay; format: functional
[20] = Antiproliferative activity against human SK-MEL-28 cells after 48 hrs by sulforhodamine B assay; format: functional; conditions: SK-MEL-28, 48 h
[21] = Antiproliferative activity against human OVCAR3 cells after 48 hrs by sulforhodamine B assay; format: functional; conditions: OVCAR-3, 48 h
[22] = Antiproliferative activity against human T47D cells after 48 hrs by sulforhodamine B assay; format: functional
[23] = tested on: MDA-MB-231; experiment: Effect on cell cycle regulatory protein in human MDA-MB-231 cells assessed as cdc2 level at 5 uM after 24 hrs by Western blot analysis relative to control; format: functional
[24] = tested on: MDA-MB-231; experiment: Effect on cell cycle regulatory protein in human MDA-MB-231 cells assessed as cyclin B1 level at 5 uM after 24 hrs by Western blot analysis relative to control; format: functional
[25] = Antiproliferative activity against human A498 cells after 48 hrs by sulforhodamine B assay; format: functional; conditions: A498, 48 h
[26] = Cell cycle arrest in human MDA-MB-231 cells assessed as accumulation at G2/M phase at 10 uM after 72 hrs by propidium iodide staining based flow cytometric analysis (reference value: 19.7%); format: functional
[27] = read-out: LC50 (the source's name)

C=C1c2c(C)nn(-c3ccc(C#CCO[C@@H]4O[C@H](CO)[C@@H](O)[C@H](O)[C@H]4O)cc3)c2N(C)C23CC1C1(C)c4c(C)nn(-c5ccc(C#CCO[C@@H]6O[C@H](CO)[C@@H](O)[C@H](O)[C@H]6O)cc5)c4N(C)C(C)(CC12)C3 (stereo partly drawn)
GI50 [1]: 1.78 µM | TGI [1]: 3.33 µM | CC50 [1, 27]: 6.22 µM | fold change (FC) [2]: 0.7 | GI50 [3]: 1.19 µM | TGI [3]: 2.59 µM | CC50 [3, 27]: 5.61 µM | inhibition [4]: Dose-dependent effect | GI50 [5]: 1.72 µM | TGI [5]: 3.77 µM | CC50 [5, 27]: 8.29 µM | GI50 [6]: 1.75 µM | TGI [6]: 3.57 µM | CC50 [6, 27]: 7.27 µM | GI50 [7]: 1.04 µM | TGI [7]: 5.03 µM | CC50 [7, 27]: > 100 µM | GI50 [8]: 2.42 µM | TGI [8]: 10.6 µM | CC50 [8, 27]: 32.5 µM | Activity [9]: 30.6% | GI50 [10]: 1.57 µM | TGI [10]: 3.15 µM | CC50 [10, 27]: 6.32 µM | Activity [11]: 2.2% | Activity [12]: 52% | fold change (FC) [13]: 0.5 | GI50 [14]: 1.49 µM | TGI [14]: 2.88 µM | CC50 [14, 27]: 5.57 µM | fold change (FC) [15]: 1 | GI50 [16]: 2.07 µM | TGI [16]: 4.43 µM | CC50 [16, 27]: 9.49 µM | GI50 [17]: 1.34 µM | TGI [17]: 2.73 µM | CC50 [17, 27]: 5.57 µM | GI50 [18]: 2.01 µM | TGI [18]: 4.04 µM | CC50 [18, 27]: 8.09 µM | GI50 [19]: 1.76 µM | TGI [19]: 3.75 µM | CC50 [19, 27]: 8.01 µM | GI50 [20]: 1.9 µM | TGI [20]: 3.52 µM | CC50 [20, 27]: 6.5 µM | GI50 [21]: 1.52 µM | TGI [21]: 3.8 µM | CC50 [21, 27]: 9.49 µM | GI50 [22]: 0.68 µM | TGI [22]: 6.8 µM | CC50 [22, 27]: 100 µM | fold change (FC) [23]: 0.9 | fold change (FC) [24]: 0.9 | GI50 [25]: 1.5 µM | TGI [25]: 3.18 µM | CC50 [25, 27]: 6.72 µM | Activity [26]: 31.1%
